Test results from ChEMBL document CHEMBL5303304, “EUbOPEN Chemogenomics Library - IncuCyte” (2023).

Key:
Assay type in all cases: toxicity, cell-based
[1] = system: HEK-293T; experiment: Incucyte cell viability with HEK293T; conditions: human, 10 µM, compound concentration 10 uM
[2] = system: U2OS; experiment: Incucyte cell viability with U2OS; conditions: human, 10 µM, compound concentration 10 uM
[3] = system: Fibroblast; experiment: Incucyte cell viability with human fibroblast; conditions: 10 µM, compound concentration 10 uM
Note: unitless GR value; below 1 slowed growth and below 0 cell loss.

SMILES	Growth Rate ([1]; 6 h, replicate number 1)	Growth Rate ([1]; 12 h, replicate number 1)	Growth Rate ([1]; 12 h, replicate number 2)	Growth Rate ([1]; 18 h, replicate number 1)	Growth Rate ([1]; 18 h, replicate number 2)	Growth Rate ([1]; 24 h, replicate number 1)	Growth Rate ([1]; 24 h, replicate number 2)	Growth Rate ([2]; 12 h, replicate number 2)	Growth Rate ([2]; 18 h, replicate number 2)	Growth Rate ([2]; 24 h, replicate number 1)	Growth Rate ([2]; 24 h, replicate number 2)	Growth Rate ([3]; 6 h, replicate number 1)	Growth Rate ([3]; 12 h, replicate number 1)	Growth Rate ([3]; 18 h, replicate number 1)	Growth Rate ([3]; 18 h, replicate number 2)	Growth Rate ([3]; 24 h, replicate number 1)	Growth Rate ([3]; 24 h, replicate number 2)	Growth Rate ([2]; 0 h, replicate number 1)	Growth Rate ([2]; 6 h, replicate number 1)	Growth Rate ([2]; 12 h, replicate number 1)	also measured
COc1cc(C(=O)NCCOCCOCCOCC(=O)N[C@H](C(=O)N2C[C@H](O)C[C@H]2C(=O)NCc2ccc(-c3scnc3C)cc2)C(C)(C)C)ccc1Nc1ncc(C(F)(F)F)c(Oc2cccc3c2C(=O)CC3)n1	0.29	-0.01	0.02	0	-0.01	0.03	-0.02	0.87	0.66	0.61	0.68	0.15	0.45	0.28	0.85	0.14	0.84				Growth Rate ([2]; 0 h, replicate number 2): 0.63; Growth Rate ([3]; 0 h, replicate number 2): 0.72; Growth Rate ([3]; 6 h, replicate number 2): -0.8; Growth Rate ([3]; 12 h, replicate number 2): 0.43
C[C@]12CC[C@@H]3c4ccc(O)cc4CC[C@H]3[C@@H]1C[C@H]1OC(=O)C[C@]12O	0.27	0.37	0.34	0.36	0.67	0.53	0.86	0.26	0.65	0.6	0.72	0.09	0.52	0.55	0.13	0.77	0.48	0.82	0.43	0.21	Growth Rate ([2]; 0 h, replicate number 2): 0.2; Growth Rate ([2]; 6 h, replicate number 2): -0.19; Growth Rate ([2]; 18 h, replicate number 1): 0.38; Growth Rate ([3]; 0 h, replicate number 1): -1; Growth Rate ([3]; 6 h, replicate number 2): -0.98; Growth Rate ([3]; 12 h, replicate number 2): -0.36
O=C1CN(c2ccccc2F)C(NCCN2CCOCC2)=C1c1nc2cc(Br)ccc2c(=O)[nH]1	0.22	0.49	1	0.53		0.74	0.88	0.96		0.89	0.96							0.24	0.56	0.85	Growth Rate ([1]; 6 h, replicate number 2): 0.74; Growth Rate ([2]; 18 h, replicate number 1): 1; Growth Rate ([3]; 0 h, replicate number 2): -0.37
Cc1ccc2c(NS(=O)(=O)c3ccccc3Cl)cccc2c1Oc1ncccc1-c1ccnc(N[C@H]2CCCNC2)n1.Cl	0.95	0.33	0.52	0.5	0.6	0.48	0.55	0.62	0.57	0.55	0.58	0.69	0.21	0.34	0.38	0.3	0.49	0.22	0.4	0.68	Growth Rate ([2]; 0 h, replicate number 2): 0.32; Growth Rate ([2]; 6 h, replicate number 2): 0.75; Growth Rate ([2]; 18 h, replicate number 1): 0.69; Growth Rate ([3]; 0 h, replicate number 1): -1; Growth Rate ([3]; 12 h, replicate number 2): 0.45
CC(C)Nc1ncnc2cc(OCc3cccc([S@@](C)(=N)=O)c3)c(Br)cc12	0.65	0.67	0.73	0.82	0.81	0.82	0.87			0.93											Growth Rate ([1]; 6 h, replicate number 2): 0.3; Growth Rate ([3]; 0 h, replicate number 1): -0.74
COc1cc(-c2cc([C@H](O)C3CC3)n3ncnc(N)c23)ccc1CO	-0.7	0.16	0.26	0.62	0.76	0.74	0.87	0.85	0.89	0.8	0.91						0.98				Growth Rate ([1]; 6 h, replicate number 2): -0.8; Growth Rate ([3]; 0 h, replicate number 2): 0.98
CCC(C(=O)Nc1ccc(-c2cc3ccccc3s2)c(C(N)=O)c1)c1nccs1 (centres undefined)	0.31	0.59	0.52	0.48	0.61	0.47	0.71	0.59	0.8	0.72	0.86	0.22	0.72	0.93	0.9	0.96		0.65	0.65	0.41	Growth Rate ([1]; 6 h, replicate number 2): 0.23; Growth Rate ([2]; 6 h, replicate number 2): 0.92; Growth Rate ([2]; 18 h, replicate number 1): 0.47; Growth Rate ([3]; 6 h, replicate number 2): -0.79
